Measured values reported in ChEMBL document CHEMBL1133823, “Antiviral drug design: computational analyses of the effects of the L100I mutation for HIV-RT on the binding of NNRTIs” (Bioorg Med Chem Lett, 2001).
“And” between values parts separate entries of the source, which are not always exact repeats. Equal values may be shown once.

Columns and labels:
[1] = Fold resistance (L100I/ WT) (as per ref 12 in the article)
[2] = Fold resistance (L100I/ WT) (as per ref 8 in the article)
[3] = Fold resistance (L100I/ WT) (as per ref 7 in the article)
[4] = Fold resistance (L100I/ WT) (as per ref 6 in the article)
[5] = biological target: Human immunodeficiency virus type 1 reverse transcriptase (Human immunodeficiency virus 1, UniProt Q72547, L100I); assay: Effective concentration required against L100I mutant HIV-1 reverse transcriptase
[6] = biological target: Human immunodeficiency virus type 1 reverse transcriptase (Human immunodeficiency virus 1, UniProt Q72547); assay: Effective concentration required against wild type HIV-1 reverse transcriptase
[7] = Fold resistance (L100I/ WT) was determined
[8] = Fold resistance (L100I/ WT) (as per ref 10 in the article)

With Cc1ccnc2c1NC(=O)c1cccnc1N2C1CC1 the FR [1] was 5, the FR [2] was 12.7 and the FR [3] was 2.1. It also gave an FR [4] of 0.6.
CC(C)=CCN1Cc2cc(Cl)cc3[nH]c(=S)n(c23)C[C@@H]1C showed an EC50 [5] of 5600 nM, an EC50 [6] of 60 nM and an FR [7] of 93.3.
Molecule CC(C)=CCOc1cc(NC(=S)c2ccoc2C)ccc1Cl [UC 781] has an EC50 [5] of 24 nM, an EC50 [6] of 9 nM and an FR [7] of 2.7.
With CCOCn1c(Cc2ccccc2)c(C(C)C)c(=O)[nH]c1=O [EMIVIRINE] the EC50 [5] was 20 nM, the EC50 [6] was 2 nM and the FR [7] was 10.
For O=C1Nc2ccc(Cl)cc2[C@@](C#CC2CC2)(C(F)(F)F)O1, the FR [8] was 5.9 and 8.6.
